Data: patent publication US5310667A (priority 1989, dated 1994)

Legend:
MP4 cells = assay: Suspension culture of petunia cells in glyphosate medium; assay type: cell-based; settings: MS media containing 0.5 mM glyphosate (sodium salt); estimated; read-out: cells which survived, of the starting population
Method: The starting cell line, designated as the MP4 line, was derived from a Mitchell diploid petunia (see e.g., Ausubel 1980). The MP4 cells were suspended in Murashige and Skoog (MS) culture media, (GIBCO, Grand Island, N.Y.) All transfers involved dispensing 10 ml of suspension cultures into 50 ml of fresh media. Cultivation periods until the next transfer ranged from 10 to 14 days, and were based on visual indications that the culture was approaching saturation.
Approximately 10 ml of saturated suspension culture (containing about 5×10^6 cells) were transferred into 50 ml of MS media containing 0.5 mM glyphosate. The sodium salt of glyphosate was used throughout the experiments described herein. The large majority of cells were unable to reproduce in the presence of the glyphosate. The cells which survived (estimated to be less than 1% of the starting population) were cultured in 0.5 mM glyphosate and transferred to fresh media containing glyphosate every 10 to 14 days.

[1] = test system: E. coli SR481 (aroA-) carrying pMON8143; assay: Growth on minimal medium containing glyphosate; assay type: cell-based
Excerpt: (§1) Chromosomal DNA isolated from the E. coli strain SR20 (GM42 hfr, his-, dam3-) was digested completely with MboI. The MboI fragments were cloned into the BglII site of plasmid pMON9564. The BglII site is in a multilinker located upstream of the promoterless petunia EPSPS coding sequence which had been tailored for expression in E. coli. The ligation mixture was used to transform E. coli strain SR481, the aroA- variant lacking endogenous EPSPS activity. Forty-one colonies were obtained which contained MboI fragments with sufficient promoter activity to express the Petunia EPSPS cDNA, complementing the aroA defect in SR481 and supporting cell growth on minimal medium. The 41 colonies were streaked individually onto MOPS minimal medium containing glyphosate at 1, 5, 10, 15 and 20 μM concentrations. The amount of cell growth on increasing concentrations of glyphosate was used as a measure of the relative promoter strength of each MboI fragment expressing the petunia EPSPS coding sequence. To further characterize each of the MboI promoter fragments, plasmid miniprep DNA was prepared by the alkaline lysis method from each of the 41 colonies and was digested individually with EcoRI, BamHI, HindIII, ClaI and NcoI. Those restriction enzymes were chosen because they cut within, or flank the petunia EPSPS coding sequence and would be used for mobilizing mutagenized fragments. Therefore, ideal promoter fragments would not contain restriction sites for any of those enzymes. There were 8 MboI fragments with varying degrees of promoter activity which lacked restriction sites for the enzymes listed above. Two of them, pMON8105 and pMON8143, were selected for further characterization. Both plasmids complemented the aroA defect and supported the growth of SR481 on minimal medium containing up to 1 mM (pMON8105) and 20 mM (pMON8143) glyphosate.

[2] = test system: E. coli SR481 (aroA-) carrying pMON8105; assay: Growth on minimal medium containing glyphosate; assay type: cell-based
Excerpt: as §1

[3] = test system: tobacco plants transformed with wild-type EPSP synthase gene; assay: Relative effect of glyphosate spraying on transformed tobacco; assay type: in vivo, Nicotiana tobacam CV H425; settings: WT, 0 total kill, 10 no effect, best transformant
Excerpt: A culture of A. tumefaciens cells containing pMON567/pGV3111-SE was contacted with leaf disks taken from tobacco plants (Nicotiana tobacam CV H425) as described by Horsch (1985). The Agrobacterium cells inserted the variant EPSP synthase gene into the chromosomes of the plant cells. Plant cells resistant to kanamycin were selected and regenerated into differentiated plants by the procedure of Horsch (1985).
Progeny of these plants were propagated and grown to a rosette diameter of about 10 cm corresponding to a plant age of about four weeks. The plants were sprayed with glyphosate at levels corresponding to 0.4, 2.0 and 3.6 pounds acid equiv./acre. The effect of glyphosate on the transformed plants were scored at 7, 14 and 28 days. The effect was translated to a numerical scale of 0-10 in which 0 represents total kill and 10 is the normal, unsprayed plant. […] The values represent the best transformant for both wild-type EPSP synthase and glyphosate-tolerant EPSP synthase genes.

[4] = test system: bacteria harboring pMON342 or pMON9566 (double pL promoter, petunia EPSP synthase); assay: Glyphosate tolerance of bacteria in growth media; assay type: cell-based, E. coli; settings: very high expression of the enzyme
Method: The double pL promoter used to express the petunia EPSP synthase in pMON342 and pMON9566 leads to a very high level of expression of the enzyme. The enzyme is present at such high concentration that bacteria harboring either of these plasmids are tolerant to very high levels of glyphosate ([…]) in growth media, even though the enzyme produced by pMON342 is the wild type form. […] A plasmid for identifying such a promoter was constructed as follows: pMON9544, the precursor to pMON342, was digested with BamHI to remove the pL promoters, and was recircularized by ligation resulting in pMON362. The EcoRI fragment of pMON9556 containing the 3'-cDNA portion of the petunia EPSPS cDNA was then inserted into the EcoRI site of this plasmid reconstituting the entire coding sequence. The resulting plasmid, pMON364 is identical to pMON342 except that there is no promoter 5' of the EPSP synthase coding sequence.

SMILES: O=C(O)CNCP(=O)(O)O [glyphosate, N-phosphonomethylglycine]
- viability at 500 µM (MP4 cells): < 1%
- glyphosate concentration up to which growth on minimal medium is supported [1]: ≤ 20 mM
- growth on 1 mM glyphosate ([2]; 1 mM glyphosate): could not support the growth
- glyphosate concentration up to which growth on minimal medium is supported ([2]; minimal medium): up to 1 mM
- Relative Effect of Glyphosate ([3]; 0.4 pounds/Acre, day 7): 6.0
- Relative Effect of Glyphosate ([3]; 0.4 pounds/Acre, day 14): 7.0
- Relative Effect of Glyphosate ([3]; 0.4 pounds/Acre, day 28): 9.0
- Relative Effect of Glyphosate ([3]; 2.0 pounds/Acre, day 7): 5.0
- Relative Effect of Glyphosate ([3]; 2.0 pounds/Acre, day 14): 1.8
- Relative Effect of Glyphosate ([3]; 2.0 pounds/Acre, day 28): 0.8
- Relative Effect of Glyphosate ([3]; 3.6 pounds/Acre, day 7): 5.0
- Relative Effect of Glyphosate ([3]; 3.6 pounds/Acre, day 14): 1.7
- Relative Effect of Glyphosate ([3]; 3.6 pounds/Acre, day 28): 0.8
- level of glyphosate tolerated in growth media [4]: > 50 µM
